Values joined by “and” are separate entries in the source; they are usually repeats but may differ in a detail not shown here. Equal entries are not always repeated. Numbers after ± are expanded uncertainties.
Conditions: Crystal, Calculated from knudsen effusion weight loss

SMILES: O=c1[nH]cc(F)c(=O)[nH]1 [5-fluoro-2,4(1H,3H)-pyrimidinedione]
- vapor or sublimation pressure (411.14 K): 0.000178 ± 1.9e-05 kPa and 0.000166 ± 1.8e-05 kPa and 0.000165 ± 1.8e-05 kPa
- vapor or sublimation pressure (413.1 K): 0.000207 ± 2.2e-05 kPa and 0.000197 ± 2.1e-05 kPa and 0.000198 ± 2.1e-05 kPa
- vapor or sublimation pressure (415.14 K): 0.000239 ± 2.5e-05 kPa and 0.000235 ± 2.5e-05 kPa and 0.000246 ± 2.6e-05 kPa
- vapor or sublimation pressure (417.14 K): 0.000261 ± 2.8e-05 kPa and 0.000283 ± 3e-05 kPa and 0.000278 ± 2.9e-05 kPa
- vapor or sublimation pressure (419.14 K): 0.000347 ± 3.7e-05 kPa and 0.000332 ± 3.5e-05 kPa and 0.000351 ± 3.7e-05 kPa
- vapor or sublimation pressure (421.18 K): 0.000418 ± 4.4e-05 kPa and 0.000401 ± 4.3e-05 kPa and 0.000406 ± 4.3e-05 kPa
- vapor or sublimation pressure (423.16 K): 0.000477 ± 5.1e-05 kPa and 0.000472 ± 5e-05 kPa and 0.000474 ± 5e-05 kPa
- vapor or sublimation pressure (425.11 K): 0.000588 ± 6.2e-05 kPa and 0.000561 ± 6e-05 kPa and 0.00058 ± 6.2e-05 kPa
- vapor or sublimation pressure (427.16 K): 0.000669 ± 7.1e-05 kPa and 0.000668 ± 7.1e-05 kPa
- vapor or sublimation pressure (429.15 K): 0.000836 ± 8.9e-05 kPa and 0.000794 ± 8.4e-05 kPa and 0.000829 ± 8.8e-05 kPa
- vapor or sublimation pressure (431.11 K): 0.001027 ± 0.00013 kPa and 0.001013 ± 0.00012 kPa and 0.000961 ± 0.0001 kPa
- vapor or sublimation pressure (433.17 K): 0.001185 ± 0.00015 kPa and 0.001148 ± 0.00014 kPa and 0.001135 ± 0.00014 kPa

SMILES: Cn1cc(F)c(=O)n(C)c1=O [2,4(1H,3H)-pyrimidinedione, 5-fluoro-1,3-dimethyl-]
- vapor or sublimation pressure (317.18 K): 8.39e-05 ± 8.9e-06 kPa and 8.8e-05 ± 9.3e-06 kPa and 8.46e-05 ± 9e-06 kPa
- vapor or sublimation pressure (319.21 K): 0.0001113 ± 1.2e-05 kPa and 0.0001195 ± 1.3e-05 kPa and 0.0001105 ± 1.2e-05 kPa
- vapor or sublimation pressure (321.12 K): 0.0001414 ± 1.5e-05 kPa and 0.0001372 ± 1.5e-05 kPa and 0.000135 ± 1.4e-05 kPa
- vapor or sublimation pressure (323.18 K): 0.0001684 ± 1.8e-05 kPa and 0.0001645 ± 1.7e-05 kPa and 0.0001712 ± 1.8e-05 kPa
- vapor or sublimation pressure (325.22 K): 0.00021 ± 2.2e-05 kPa and 0.0002051 ± 2.2e-05 kPa and 0.0002013 ± 2.1e-05 kPa
- vapor or sublimation pressure (327.13 K): 0.0002547 ± 2.7e-05 kPa and 0.0002583 ± 2.7e-05 kPa and 0.0002608 ± 2.8e-05 kPa
- vapor or sublimation pressure (329.18 K): 0.0003128 ± 3.3e-05 kPa and 0.0003165 ± 3.4e-05 kPa and 0.000333 ± 3.5e-05 kPa
- vapor or sublimation pressure (331.22 K): 0.0004074 ± 4.3e-05 kPa and 0.0004027 ± 4.3e-05 kPa and 0.0004159 ± 4.4e-05 kPa
- vapor or sublimation pressure (333.12 K): 0.0005058 ± 5.4e-05 kPa and 0.0004953 ± 5.3e-05 kPa and 0.0005012 ± 5.3e-05 kPa
- vapor or sublimation pressure (335.17 K): 0.0006116 ± 6.5e-05 kPa and 0.0006003 ± 6.4e-05 kPa and 0.0006128 ± 6.5e-05 kPa
- vapor or sublimation pressure (337.24 K): 0.0007507 ± 8e-05 kPa and 0.0007652 ± 8.1e-05 kPa and 0.0007436 ± 7.9e-05 kPa
- vapor or sublimation pressure (339.14 K): 0.0009104 ± 9.7e-05 kPa and 0.0009266 ± 9.8e-05 kPa and 0.0009283 ± 9.8e-05 kPa

From the NIST ThermoML archive (doi:10.1016/j.jct.2014.02.018)
